The results in this text go back to ChEMBL document CHEMBL3045432, “Synthesis and Fungicidal Activity of -Cyanoacetamide Derivatives: Discovery of a New Rice Blast Fungicide, Diclocymet (S-2900)” (2002).

Values after ≈ are worked out from the molar mass of the structure shown.

What all share (format): functional
Assay [1] relates to Pyricularia grisea. In words: Fungicidal activity against Magnaporthe grisea in rice plant assessed as prevention from rice blast disease measured as lesions under greenhouse at 50 ppm for 8 days by foliar spray compound treated before inoculation.
Assay [2] relates to Pyricularia grisea. The assay is described as follows: Fungicidal activity against Magnaporthe grisea in rice plant assessed as prevention from rice blast disease measured as lesions under greenhouse at 200 ppm for 8 days by soil drench compound treated before inoculation.
Assay [3] relates to Pyricularia grisea. The assay is described as follows: Fungicidal activity against Magnaporthe grisea in rice plant assessed as prevention from rice blast disease measured as lesions under greenhouse at 200 ppm for 8 days by foliar spray compound treated before inoculation.
The subject of assay [4] is Pyricularia grisea. The assay is described as follows: Fungicidal activity against Magnaporthe grisea in rice plant assessed as prevention from rice blast disease measured as lesions under greenhouse at > 200 ppm for 8 days by soil drench compound treated before inoculation.
The subject of assay [5] is Pyricularia grisea. The assay is described as follows: Fungicidal activity against Magnaporthe grisea in rice plant assessed as prevention from rice blast disease measured as lesions under greenhouse at > 200 ppm for 8 days by foliar spray compound treated before inoculation.
The subject of assay [6] is Pyricularia grisea. The assay is described as follows: Fungicidal activity against Magnaporthe grisea in rice plant assessed as rice blast disease measured as damage under greenhouse at 25 ppm for 8 days by foliar spray compound treated before inoculation.
The test system of assay [7] is Pyricularia grisea. In words: Fungicidal activity against Magnaporthe grisea in rice plant assessed as rice blast disease measured as damage under greenhouse at 6.3 ppm for 8 days by foliar spray compound treated before inoculation.
The test system of assay [8] is Pyricularia grisea. In words: Fungicidal activity against Magnaporthe grisea in rice plant assessed as rice blast disease measured as damage under greenhouse at 1.6 ppm for 8 days by foliar spray compound treated before inoculation.
The subject of assay [9] is Pyricularia grisea. The assay is described as follows: Fungicidal activity against Magnaporthe grisea in rice plant assessed as rice blast disease measured as damage under greenhouse at 0.4 ppm for 8 days by foliar spray compound treated before inoculation.
Assay [10] has as its system Pyricularia grisea. The assay is described as follows: Fungicidal activity against Magnaporthe grisea in rice plant assessed as prevention from rice blast disease measured as lesions under greenhouse at 50 ppm for 8 days by soil drench compound treated before inoculation.
The subject of assay [11] is Pyricularia grisea. In words: Fungicidal activity against Magnaporthe grisea in rice plant assessed as rice blast disease measured as damage under greenhouse by foliar spray for 8 days compound treated before inoculation. The settings on record: 192 h.
The test system of assay [12] is Pyricularia grisea. In words: Fungicidal activity against Magnaporthe grisea in rice plant assessed as prevention from rice blast disease measured as lesions under greenhouse at 3.1 ppm for 8 days by foliar spray compound treated before inoculation.

Regarding `CC(NC(=O)C(C#N)C1CCCC1)c1ccc(Cl)cc1` (stereo not drawn), the Activity entry in assay [1] and in assay [2] was “<=10%” each time.
For the compound `CC(NC(=O)C(C#N)C(C)(C)C)c1ccc(Cl)s1` (stereo not drawn), the Activity result in assay [3] and in assay [4] was “<=10%” throughout.
As for `CC(NC(=O)C(C#N)c1ccccc1)c1ccc(Cl)cc1` (stereo not drawn), the Activity result in [5] and in [4] was “<=10%” throughout.
For `CCC(NC(=O)C(C#N)C(C)(C)C)c1ccc(Cl)cc1` (stereo not drawn), the Activity result in assay [5] and in assay [4] was “<=10%” throughout.
In the case of `CC(C)CC(C#N)C(=O)NC(C)c1ccc(Cl)cc1` (stereo not drawn), the Activity entry in assay [3] and in [2] was “<=10%” in each case.
With `CC(NC(=O)C(F)C(C)(C)C)c1ccc(Cl)cc1` (stereo not drawn), the Activity result in assay [5] and in [4] was “<=10%” throughout.
As for `C#CC(C(=O)NC(C)c1ccc(Cl)cc1)C(C)(C)C` (stereo not drawn), the Activity entry in assay [3] and in [4] was “<=10%” throughout.
For `O=C1OCc2c(Cl)c(Cl)c(Cl)c(Cl)c21` [4,5,6,7-TETRACHLOROPHTHALIDE], the Activity in [6] came to 4%; in assay [7], 1%; in assay [8], 0%; in assay [9] it was 0%.
On to `CC(NC(=O)C(C#N)C(C)(C)C)c1ccc(OC(F)(F)F)cc1` (stereo not drawn), for which the Activity result in assay [1] and in assay [10] was “<=10%” throughout.
Turning to `CC(C)(C)C(C#N)C(=O)NCCc1ccc(Cl)cc1` (stereo not drawn), the Activity entry in assay [3] and in assay [4] was “<=10%” in each case.
In the case of `CC(NC(=O)C(C#N)C(C)(C)C)c1ccc(OC(F)F)cc1` (stereo not drawn), the Activity entry in assay [1] and in [10] was “<=10%” throughout.
As to `CC(NC(=O)C(C#N)C(C)(C)C)c1ccc(Cl)c(Cl)c1` (stereo not drawn), the Activity result in assay [1] and in assay [10] was “<=10%” each time.
`CCCCC(C#N)C(=O)NC(C)c1ccc(Cl)cc1` (stereo not drawn): the Activity result in assay [1] and in assay [2] was “<=10%” each time.
Consider `CC(NC(=O)C(C#N)CC(C)(C)C)c1ccc(Cl)cc1` (stereo not drawn), for which the Activity entry in assay [3] and in [10] was “<=10%” throughout.
In the case of `CC(NC(=O)C(C)(C)C#N)c1ccc(Cl)cc1` (stereo not drawn), the Activity entry in assay [5] and in assay [4] was “<=10%” throughout.
Consider `CSC(C(=O)NC(C)c1ccc(Cl)cc1)C(C)(C)C` (stereo not drawn), for which the Activity result in assay [3] and in assay [4] was “<=10%” in each case.
`CC(C)(C)C(C#N)C(=O)NCc1ccc(Cl)cc1` (stereo not drawn): the Activity entry in assay [3] and in assay [2] was “<=10%” throughout.
Regarding `CC(NC(=O)C(C)(C#N)C(C)(C)C)c1ccc(Cl)cc1` (stereo not drawn), the Activity entry in [3] and in assay [4] was “<=10%” in each case.
In the case of `CC(C)=C(C#N)C(=O)NC(C)c1ccc(Cl)cc1` (stereo not drawn), the Activity result in assay [5] and in assay [4] was “<=10%” each time.
With `CC(NC(=O)C(Br)(C#N)C(C)(C)C)c1ccc(Cl)cc1` (stereo not drawn), the Activity result in assay [3] and in assay [10] was “<=10%” each time.
Regarding `CC(NC(=O)C(C#N)C(C)C)c1ccc(Cl)cc1` (stereo not drawn), the Activity result in assay [3] and in assay [10] was “<=10%” in each case.
In the case of `C[C@@H](NC(=O)C(C#N)C(C)(C)C)c1ccc(Cl)cc1Cl` (mixture of isomers) [DICLOCYMET], the MIC in [11] stood at 0.08 µg/mL. Moreover, the Activity in assay [6] stood at 4%; in assay [7], 4%; in [8], 3%; in assay [9], 2%.
Consider `CC(NC(=O)C(C#N)C(C)(C)C)c1ccc(OC(F)(F)C(F)F)cc1` (stereo not drawn), for which the Activity entry in assay [3] and in [2] was “<=10%” throughout.
As to `CC(NC(=O)C1(C#N)CCCC1)c1ccc(Cl)cc1` (stereo not drawn), the Activity entry in assay [5] and in assay [4] was “<=10%” each time.
For `CCC(C#N)(CC)C(=O)NC(C)c1ccc(Cl)cc1` (stereo not drawn), the Activity result in assay [5] and in [4] was “<=10%” in each case.
For the compound `CC(NC(=O)C(C#N)C(C)(C)C)c1ccc(F)cc1` (stereo not drawn), the Activity result in [3] and in assay [4] was “<=10%” in each case.
With `C[C@H](NC(=O)[C@H](C#N)C(C)(C)C)c1ccc(Cl)cc1Cl`, the MIC in assay [11] is > 20 µg/mL. Also, the Activity in assay [6], in [7], in assay [8] and in assay [9] was 0% throughout.
For the compound `C[C@H](NC(=O)[C@@H](C#N)C(C)(C)C)c1ccc(Cl)cc1Cl`, the MIC in [11] is > 20 µg/mL. Also, the Activity in assay [6], in assay [7], in assay [8] and in [9] was 0% each time.
Turning to `CC(NC(=O)C(C#N)C(C)(C)C)c1ccccc1` (stereo not drawn), the Activity result in assay [3] and in assay [4] was “<=10%” in each case.
On to `CC(NC(=O)C(O)C(C)(C)C)c1ccc(Cl)cc1` (stereo not drawn), for which the Activity result in assay [5], in assay [3] and in [4] was “<=10%” in each case.
On to `CC(C)C(C)NC(=O)C(C#N)C(C)(C)C` (stereo not drawn), for which the Activity entry in assay [5] and in assay [4] was “<=10%” in each case.
For the compound `COC(NC(=O)C(C#N)C(C)(C)C)c1ccc(Cl)cc1` (stereo not drawn), the Activity result in [5] and in assay [4] was “<=10%” in each case.
For the compound `COC(C(=O)NC(C)c1ccc(Cl)cc1)C(C)(C)C` (stereo not drawn), the Activity entry in assay [5], in assay [3] and in [4] was “<=10%” each time.
Consider `CC(C)(C)C(C#N)C(=O)Nc1ccc(Cl)cc1` (stereo not drawn), for which the Activity entry in [5] and in [4] was “<=10%” each time.
Turning to `Cc1ccc(C(C)NC(=O)C(C#N)C(C)(C)C)cc1` (stereo not drawn), the Activity entry in assay [12] and in [10] was “<=10%” in each case.
For `COc1ccc(C(C)NC(=O)C(C#N)C(C)(C)C)cc1` (stereo not drawn), the Activity entry in assay [3] and in assay [2] was “<=10%” in each case.
Consider `CC(Cc1ccc(Cl)cc1)NC(=O)C(C#N)C(C)(C)C` (stereo not drawn), for which the Activity result in [3] and in [4] was “<=10%” throughout.
Regarding `CC(NC(=O)C(C#N)=C1CCCC1)c1ccc(Cl)cc1` (stereo not drawn), the Activity result in assay [3] and in assay [2] was “<=10%” in each case.
With `CC(C#N)C(=O)NC(C)c1ccc(Cl)cc1` (stereo not drawn), the Activity result in assay [5] and in assay [4] was “<=10%” in each case.
As to `CCC(CC)=C(C#N)C(=O)NC(C)c1ccc(Cl)cc1` (stereo not drawn), the Activity result in [1] and in assay [2] was “<=10%” in each case.
In the case of `CC(NC(=O)C1(C#N)CC1(C)C)c1ccc(Cl)cc1` (stereo not drawn), the Activity result in assay [5] and in [4] was “<=10%” each time.
As to `CC(NC(=O)C(C(C)(C)C)S(C)(=O)=O)c1ccc(Cl)cc1` (stereo not drawn), the Activity result in [3] and in assay [4] was “<=10%” each time.
As for `C[C@@H](NC(=O)[C@H](C#N)C(C)(C)C)c1ccc(Cl)cc1Cl`, the MIC in assay [11] was found to be 0.04 µg/mL (≈ 0.128 µM). Besides, the Activity in assay [6] is given as 5%; in assay [7], 4%; in assay [8], 4%; in assay [9], 3%.
Regarding `CC(NC(=O)C(C#N)C1CCCCC1)c1ccc(Cl)cc1` (stereo not drawn), the Activity entry in [3] and in assay [4] was “<=10%” throughout.
As for `CCC(C)C(C#N)C(=O)NC(C)c1ccc(Cl)cc1` (stereo not drawn), the Activity entry in [1] and in assay [10] was “<=10%” in each case.
Regarding `C=CC(C)(C)C(C#N)C(=O)NC(C)c1ccc(Cl)cc1OC` (stereo not drawn), the Activity entry in assay [12] and in assay [10] was “<=10%” throughout.
As to `C=CC(C)(C)C(C#N)C(=O)NC(C)c1ccc(Cl)cc1C` (stereo not drawn), the Activity result in [4] is recorded as “<=10%”.
Regarding `CC(NC(=O)C(C#N)C(C)(C)C)c1ccc(C(F)(F)F)cc1` (stereo not drawn), the Activity result in [12] and in assay [10] was “<=10%” in each case.
`CC(C)NC(=O)C(C#N)C(C)(C)C` (stereo not drawn): the Activity result in assay [5] and in assay [4] was “<=10%” throughout.
For `CC(NC(=O)C1(C#N)CCCCC1)c1ccc(Cl)cc1` (stereo not drawn), the Activity entry in [5] and in assay [4] was “<=10%” in each case.
Turning to `CC(NC(=O)C(C#N)C(C)(C)C)c1ccc(Cl)cn1` (stereo not drawn), the Activity result in assay [5] and in assay [4] was “<=10%” throughout.
As to `CC(NC(=O)C(C#N)C(C)(C)C)c1cccc(Cl)c1` (stereo not drawn), the Activity result in assay [3] and in assay [2] was “<=10%” each time.
Regarding `CC(NC(=O)C(C#N)=C1CCCCC1)c1ccc(Cl)cc1` (stereo not drawn), the Activity result in assay [5] and in assay [4] was “<=10%” each time.
As for `CC(NC(=O)C(C#N)C(C)(C)C)c1ccc(Cl)cc1Cl` (stereo not drawn), the Activity result in assay [12] and in assay [10] was “<=10%” each time.
As for `CCC(CC)C(C#N)C(=O)NC(C)c1ccc(Cl)cc1` (stereo not drawn), the Activity result in [12] and in [10] was “<=10%” throughout.
Regarding `CC(NC(=O)C(C#N)C(C)(C)C)c1ccc(Cl)nc1` (stereo not drawn), the Activity entry in assay [3] and in assay [4] was “<=10%” in each case.
As for `CC(NC(=O)C(Br)C(C)(C)C)c1ccc(Cl)cc1` (stereo not drawn), in assay [2], the Activity result is reported as “<=10%”.
Consider `CC(NC(=O)C([S+](C)[O-])C(C)(C)C)c1ccc(Cl)cc1` (stereo not drawn), for which the Activity entry in [5] and in assay [4] was “<=10%” in each case.
Take `CC(NC(=O)C(C)(C#N)C(C)C)c1ccc(Cl)cc1` (stereo not drawn): the Activity entry in assay [5] and in assay [4] was “<=10%” throughout.
Turning to `CC(NC(=O)C(C#N)C(C)(C)C)c1ccccc1Cl` (stereo not drawn), in assay [2], the Activity result is “<=10%”.
